Experimental findings from US4476128A, “2-Substituted thiazolyl-piperazine compounds, process for preparation thereof and utilizations thereof _” (Mitsuitoatsu Chemicals, Inc., priority 1980, dated 1984) are described below.

Experiment [1] concerns delayed hypersensitivity induced by picryl chloride. Briefly: Test of Reinforcement of Delayed Hypersensitivity (picryl chloride, mouse ear thickness). It counts as in vivo, ICR male mice. The following applies: 50 mg/Kg oral, simultaneously with sensitization; 24 hours after challenge; * P<0.05, ** P<0.01. The text has this: Various test systems using animals have been proposed for determining the immunopotentiative action. Results of the test of reinforcement of the delayed hypersensitivity, which is a typical test among these tests, will now be described.
This system was used for the test of reinforcement of the delayed hypersensitivity.
One group of eight ICR male mice, each having a body weight of about 30 g, was used for the test.
Sensitization was effected by coating a 7% solution of picryl chloride in a 4/1 mixture of olive oil and acetone on the shaved abdomen of the mouse.
Simultaneously with sensitization, a solution or suspension of the compound of the present invention in a 0.2% solution of carboxymethyl cellulose in a physiological saline was orally administered to the mouse at a dose of 50 mg per Kg of the body weight. To the control group, a 0.2% carboxymethyl cellulose solution in a physiological saline was similarly administered.
The delayed hypersensitivity was challenged 7 days after sensitization by gripping the ear of the mouse by a forceps wrapped with a felt impregnated with a 1% solution of picryl chloride in olive oil and coating the ear with the solution. The thickness of the ear was measured before challenging and 24 hours after challenging and the ratio of increase of the thickness (average value of both the ears in eight mice±standard deviation) was obtained as shown in Table 1.
For comparison, the test was similarly carried out by using Levamisole hydrochloride, and the obtained results are shown in Table 1. F.t tests were carried out. The group in which the test result was significant at a level of P<0.05 was marked by *, and the group in which the test result was significant at a level of P<0.01 was marked by **.

In experiment [2] the test system is adjuvant arthritis caused by Mycobacterium tuberculosis adjuvant. The experiment is described as follows: Adjuvant Arthritis Test. The format is in vivo, SD male rats. The following applies: 5 mg/Kg subcutaneous, 9 times, left hind leg, * P<0.05, ** P<0.01. As to the method: The adjuvant arthritis in rats caused by injection of a Mycobacterium tuberculosis adjuvant is often utilized for a model test of chronic rheumatoid arthritis in men.
The mechanism of manifestation of this disease has not completely been elucidated, but it is known that the cellular immunity takes an important role. The immunopotentiative action of the compound of the present invention was tested according to this known adjuvant arthritis test.
A group of ten 9-weeks-old SD male rats were used for the test. In 0.1 ml of fluid paraffin, 0.4 mg of dry dead cells of Mycobacterium tuberculosis were suspended, and the suspension was injected under the heel skin of the right hind leg. The compound of the present invention was subcutaneously administered 9 times as a whole before and after injection of the adjuvant. The test compound was dissolved in a physiological saline and administered at a dose of 5 mg per Kg of the body weight. The swelling volume of the left hind leg as measured during the period of from the day of injection to the day of completion of the test, and the swelling ratio was calculated. For comparison, the test was similarly conducted by using Levamisole hydrochloride. F.t tests were carried out on the obtained test results. The group in which the test result was significant at a level of P<0.05 was marked by *, and the group in which the test result was significant at a level of P<0.01 was marked by **.

For the next experiment, the system named is EL-4 leukemic cells. Briefly: In-Vitro Test of Inhibition of Growth of Cancer Cell by Macrophage (3H-thymidine take-in). The format is cell-based, C57 BL/6J mouse (EL-4 cells); ddY female mice (macrophages). The settings on record: 8 mg/Kg intraperitoneal, macrophages collected after 4 days; 3H-thymidine incorporated into EL-4 cells. The protocol:
The results of the test of the action of the effective ingredient of the present invention on the macrophage will now be described with reference to the following Test 3. More specifically, the separated macrophage and EL-4 leukemic cell were mixed and cultured, and ^3 H-thymidine was added to a culture medium and the quantity of ^3 H-thymidine incorporated into the EL-4 cell was determined to examine the activity of the macrophage. When the macrophage is activated by administration of the effective ingredient of the present invention, inhibition of the growth of EL-4 cell, that is, phagocytosis of the cancer cell by the macrophage, is observed. Accordingly, if the take-in amount of ^3 H-thymidine is measured and this amount is reduced, it is confirmed that the macrophage has been activated. Test Procedures: […] The dose was 8 mg per Kg of the body weight. To the control group, a physiological saline was similarly administered. After passage of 4 days, exuded abdominal cells were collected and deposited on a plastic Petri dish to collect macrophages. […] Then, 0.1 μCi of ^3 H-thymidine was added and culturing was further conducted for 16 hours. Cells were collected on a filter paper from the culture medium and the amount of ^3 H-thymidine incorporated in was determined by a liquid scintillation counter.

For experiment [3], the system named is Sarcoma 180. The experiment is described as follows: Test of Antitumor Effect to Sarcoma 180 by Oral Administration. The settings on record: for D: average diameter (mm) of tumor, 2 weeks / D: average diameter (mm) of tumor, 4 weeks / D: average diameter (mm) of tumor, 6 weeks / D: average diameter (mm) of tumor, 8 weeks / D: average diameter (mm) of tumor, 10 weeks: 100 mg/Kg oral once a day, 10 days; for N: number of living mice, 0 weeks / N: number of living mice, 2 weeks / N: number of living mice, 4 weeks / N: number of living mice, 6 weeks / N: number of living mice, 8 weeks / N: number of living mice, 10 weeks: 100 mg/Kg oral, group of 6. The format is in vivo, ICR female mice. The protocol:
To the control group, a physiological saline was similarly administered. The dose of the compound was 100 mg per Kg of the body weight. The diameter D (mm) of the tumor was measured, and the average value and the number N of the living mice were determined to obtain results shown in Table 4.

The subject of experiment [4] is Sarcoma 180. The experiment is described as follows: Test of Antitumor Effect to Sarcoma 180 by Subcutaneous Administration. The following applies: 20 mg/Kg subcutaneous; for N: number of living mice, 0 weeks / N: number of living mice, 2 weeks / N: number of living mice, 4 weeks / N: number of living mice, 6 weeks / N: number of living mice, 8 weeks / N: number of living mice, 10 weeks: group of 6. It counts as in vivo, ICR female mice. As to the method:
To the control group, a physiological saline was similarly administered. […] The diameter D (mm) of the tumor was measured, and the average value and the number N of the living mice were determined to obtain results shown in Table 4.

`CCN(CC)C(=O)N1CCN(c2nc(-c3ccccc3)cs2)CC1` [drawing 8]: the “Ratio of Increase of Ear Thickness (average value ± standard variation, %)” value in experiment [1] is listed as 37.5 ± 2.1%.
The same measure, in the same setting: the result for `CCN(CC)C(=O)N1CCN(c2nccs2)CC1` [drawing 9] reads 36.6 ± 3.0%.
As for `CCN(CC)C(=O)N1CCN(c2nc(-c3ccccc3)cs2)CC1` [drawing 10], in experiment [2], the “Swelling Ratio (average value ± standard variation, %), 15 days” value is on record as 43.5 ± 13.9%; the “Swelling Ratio (average value ± standard variation, %), 18 days” value came out at 41.5 ± 12.6%; the “Swelling Ratio (average value ± standard variation, %), 21 days” value turned out to be 52.9 ± 11.2%.
The corresponding values for `CCN(CC)C(=O)N1CCN(c2nccs2)CC1` [drawing 11] are 60.9 ± 8.0%, 59.8 ± 7.8% and 50.5 ± 10.0%.
As to `CCN(CC)C(=O)N1CCN(c2nc(-c3ccccc3)cs2)CC1` [drawing 12], the “Take-in Ratio (average value, %)” value in the experiment on EL-4 leukemic cells stood at 21.0%.
Same read-out and setting: the result for `CCN(CC)C(=O)N1CCN(c2nccs2)CC1` [drawing 13] reads 25.8%.
Consider `CCN(CC)C(=O)N1CCN(c2nc(-c3ccccc3)cs2)CC1` [drawing 14], for which, in the experiment with Sarcoma 180 [3], the “D: average diameter (mm) of tumor, 2 weeks” value (“D: average diameter … 2 weeks” below) is on record as 5.6 mm; the “D: average diameter (mm) of tumor, 4 weeks” value (“D: average diameter … 4 weeks” for short) is 3.5 mm; the “D: average diameter (mm) of tumor, 6 weeks” value (from here on “D: average diameter … 6 weeks”) amounted to 4.6 mm; the “D: average diameter (mm) of tumor, 8 weeks” value (from here on “D: average diameter … 8 weeks”) amounted to 0 mm. Also, in the experiment on Sarcoma 180 [3], the “D: average diameter (mm) of tumor, 10 weeks” value (from here on “D: average diameter … 10 weeks”) came out at 0 mm; the “N: number of living mice, 0 weeks” value amounted to 6; the “N: number of living mice, 2 weeks” value turned out to be 6; the “N: number of living mice, 4 weeks” value is 6. Besides, in the experiment on Sarcoma 180 [3], the “N: number of living mice, 6 weeks” value amounted to 6; the “N: number of living mice, 8 weeks” value stood at 6; the “N: number of living mice, 10 weeks” value is 6.
For the compound `CCN(CC)C(=O)N1CCN(c2nccs2)CC1` [drawing 15], in the experiment on Sarcoma 180 [3], the “D: average diameter … 2 weeks” value was 8.6 mm; the “D: average diameter … 4 weeks” value was 7.5 mm; the “D: average diameter … 6 weeks” value is 6.7 mm; the “D: average diameter … 8 weeks” value came to 7.7 mm. Besides, in the experiment with Sarcoma 180 [3], the “D: average diameter … 10 weeks” value is recorded as 0 mm; the “N: number of living mice, 0 weeks” value was 6; the “N: number of living mice, 2 weeks” value turned out to be 6; the “N: number of living mice, 4 weeks” value worked out at 6. Besides, in the experiment with Sarcoma 180 [3], the “N: number of living mice, 6 weeks” value came out at 6; the “N: number of living mice, 8 weeks” value is listed as 6; the “N: number of living mice, 10 weeks” value is reported as 6.
Turning to `CCN(CC)C(=O)N1CCN(c2nc(-c3ccccc3)cs2)CC1` [drawing 16], in the experiment with Sarcoma 180 [4], the “N: number of living mice, 0 weeks” value worked out at 6; the “D: average diameter … 2 weeks” value came out at 2.6 mm; the “N: number of living mice, 2 weeks” value came out at 6; the “D: average diameter … 4 weeks” value is 3.5 mm. In the experiment with Sarcoma 180 [4], the “N: number of living mice, 4 weeks” value worked out at 6; the “D: average diameter … 6 weeks” value was 6.5 mm; the “N: number of living mice, 6 weeks” value was determined as 6; the “D: average diameter … 8 weeks” value stood at 0.6 mm. Moreover, in the experiment on Sarcoma 180 [4], the “N: number of living mice, 8 weeks” value was found to be 6; the “D: average diameter … 10 weeks” value is reported as 0 mm; the “N: number of living mice, 10 weeks” value is reported as 6.
`CCN(CC)C(=O)N1CCN(c2nccs2)CC1` [drawing 17]: in the experiment on Sarcoma 180 [4], the “N: number of living mice, 0 weeks” value was found to be 6; the “D: average diameter … 2 weeks” value is reported as 4.9 mm; the “N: number of living mice, 2 weeks” value is reported as 6; the “D: average diameter … 4 weeks” value amounted to 6.7 mm. In the experiment with Sarcoma 180 [4], the “N: number of living mice, 4 weeks” value was determined as 6; the “D: average diameter … 6 weeks” value was determined as 9.6 mm; the “N: number of living mice, 6 weeks” value stood at 6; the “D: average diameter … 8 weeks” value came out at 5.6 mm. Moreover, in the experiment on Sarcoma 180 [4], the “N: number of living mice, 8 weeks” value was determined as 6; the “D: average diameter … 10 weeks” value worked out at 0 mm; the “N: number of living mice, 10 weeks” value amounted to 6.
